Several values for one entry are separate records, joined by “and”; a condition that tells them apart may be missing. Equal entries are not always repeated.
molecular target: T1, SCD1 (Homo sapiens, UniProt O00767); assay: Growth inhibition of humanized yeast expressing SCD1 as sole desaturase; format: cell-based; conditions: humanized yeast expressing SCD1
T1 construct: host or cells: S. cerevisiae ole1Δ strain, plasmid pRS316 with TDH3 promoter and CYC1 terminator
T1 sequence (O00767 1-359): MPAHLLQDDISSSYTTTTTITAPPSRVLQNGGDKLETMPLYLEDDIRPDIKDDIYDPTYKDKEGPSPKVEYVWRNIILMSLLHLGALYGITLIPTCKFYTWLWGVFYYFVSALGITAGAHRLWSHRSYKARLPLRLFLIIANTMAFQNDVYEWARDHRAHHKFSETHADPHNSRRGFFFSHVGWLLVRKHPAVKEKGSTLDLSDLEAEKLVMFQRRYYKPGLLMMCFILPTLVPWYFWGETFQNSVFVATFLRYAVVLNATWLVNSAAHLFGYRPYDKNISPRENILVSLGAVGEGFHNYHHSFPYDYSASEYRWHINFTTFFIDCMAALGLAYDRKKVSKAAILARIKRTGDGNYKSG
Method: (§1) Strain ole1Δ (yeast ole1 deletion mutant) was constructed by deleting OLE1 with NAT-MX6 in BY4741, amplifying the deletion cassette from the genomic DNA of the resulting strain with primers flanking the ORF by 1000 bp upstream and downstream, transforming the resulting deletion cassette into W303 pdr1Δ pdr3Δ, and plating transformants on YPD media containing G418 (200 μg/mL) and nourseothricin (100 μg/mL) with 0.01% TWEEN®-20 and 0.5 mM oleic and palmitoleic acids.
(§2) The coding sequence of yeast OLE1 was also cloned into this plasmid). These clones were then transformed into the ole1Δ strain and plated on CSM-Ura media (CSM lacking uracil) with 2% glucose (w/v) and independent colonies were isolated and amplified.
(§3) All compound profiling experiments were performed using the same basic protocol. Different genetic backgrounds (e.g., gene deletions) or conditions (e.g., addition of oleic and palmitoleic acid) were replaced as indicated below.
(§4) Yeast were cultured using standard techniques in complete synthetic media (CSM) and yeast nitrogen base supplemented with 2% (w/v) carbon source (glucose, raffinose, or galactose) to regulate the expression of the toxic disease protein. An initial starter culture was inoculated in 3 mL CSM-Glucose media and incubated overnight in a 30° C. shaker incubator (225 rpm). Saturated morning cultures were then diluted 1:20 in fresh CSM-Raffinose media and grown for 6 h to an OD600 (optical density) of ˜0.4-0.8 at 30° C. with shaking.
(§5) Compound administration was performed in two separate steps. First, 15 μL of CSM-Galactose (induces expression of toxic protein) was dispensed into clear 384 well assay plates using a MULTIDROP™ Combi reagent dispenser. […] The cultures described above were then diluted to a 2× concentration (0.03 and 0.08 for alpha-synuclein and ApoE, final OD600 of 0.015 and 0.04) in CSM-Galactose. For wild-type and Ole1/SCD1/SCD5 plasmid-containing strains, the 2× cell density was 0.02. […] For 96-well assays (FIGS. 1A and 1B), compound dilutions in DMSO were generated in 96 well plates and 1 μL was manually pipetted into 96 well clear bottom assay plates.
(§6) For experiments using a plasmid-borne copy of Ole1, SCD1, or SCD5 (FIGS. 3B, 6, and 7), media lacking uracil (SX-Ura, where X is glucose, raffinose, or galactose), was used for all steps of the compound profiling protocol to ensure its maintenance throughout the assay.
(§7) After yeast delivery, assay plates were incubated under humidified conditions at 30° C. for 24 to 40 h. ApoE4 rescue experiments were stopped at 24 h, aSyn experiments at 40 h, Ole1 at 24 h, and SCD1/SCD5 at 40 h. The growth of yeast was monitored by reading the OD600 of each well using a microplate reader (Perkin Elmer EnVision™).

Row | SMILES | IC50 [µM]
1 | COc1cccc(-c2noc(C3CC(=O)N(c4ccc(C)c(C)c4)C3)n2)c1 (stereo not drawn) [Compound 489] | 41
2 | Cn1c(=O)n(C)c2cc(-c3noc(C4CCN(C(=O)[C@@H](CO)NC(=O)c5ccccc5)CC4)n3)ccc21 [Compound 214] | 41
3 | COc1ccc(-c2noc(CCNC(=O)COc3cc(O)c4c(c3)OC(C)(C)CC4=O)n2)cc1OC [Compound 486] | > 45
4 | CC1(C)CC(=O)c2c(O)cc(OCC(=O)NCCc3nc(-c4ccccc4)no3)cc2O1 [Compound 487] | > 45
5 | COc1ccc(-c2noc(CCNC(=O)CNC(=O)c3ccccc3)n2)cc1OC [Compound 484] | > 45
6 | COc1ccc(-c2noc(C3CCNCC3)n2)cc1OC [Compound 488] | > 45

same assay, conditions: humanized yeast expressing human SCD1

Row | SMILES | IC50 [µM]
7 | CC(=O)N[C@H]1CC[C@H](c2nc(-c3ccc4cnn(C(C)C)c4c3)no2)CC1 [Compound 535] | > 45
8 | COC(=O)N1CCC(c2nc(-c3ccc4c(C)nn(C)c4c3)no2)CC1 [Compound 273] | > 45
9 | Cc1nn(C)c2cc(-c3noc(C4CCN(C(=O)c5ccccc5Cl)CC4)n3)ccc12 [Compound 288] | > 45
10 | CC(C)OC(=O)N1CCC(c2nc(-c3ccc4oc(=O)n(C(C)C)c4c3)no2)CC1 [Compound 507] | > 45
11 | CC(C)n1ncc2ccc(-c3noc([C@H]4CC[C@@H](N)CC4)n3)cc21 [Compound 536] | > 45
12 | CC1(OC(=O)N2CCC(c3nc(-c4ccc5cnn(C6COC6)c5c4)no3)CC2)CC1 [Compound 576] | > 45
13 | Cc1nn(C)c2cc(-c3noc(C4CCN(C(=O)CNC(=O)c5cc(Cl)ccc5C(F)(F)F)CC4)n3)ccc12 [Compound 328] | > 45
14 | O=C([C@H]1CC(=O)N(c2ccccc2)C1)N1CCC(c2nc(-c3ccc(Br)s3)no2)CC1 [Compound 248] | > 45
15 | Cc1nn(C)c2cc(-c3noc(C4CCN(C(=O)c5ccccc5)CC4)n3)ccc12 [Compound 280] | > 45
16 | CC(C)c1ccc(C(=O)N2CCC(c3nc(N4CC5(COC5)C4)no3)CC2)cc1 [Compound 337] | > 45
17 | Cc1nn(C)c2cc(-c3nc(C4CCN(C(=O)CNC(=O)c5ccccc5)CC4)no3)ccc12 [Compound 326] | > 45
18 | Cc1nn(C)c2cc(-c3noc(C4CCN(C(=O)CNC(=O)c5ccc(Cl)cc5)CC4)n3)ccc12 [Compound 269] | > 45
19 | Cc1nn(C)c2cc(-c3noc(C4CCN(C(=O)CNC(=O)c5ccc(C(F)(F)F)cc5)CC4)n3)ccc12 [Compound 317] | > 45
20 | CC(C)n1ncc2ccc(-c3noc(C4CCN(C(=O)c5cscn5)CC4)n3)cc21 [Compound 573] | > 45
21 | COC(=O)N1CCC(c2nc(-c3ccc4cnn(C(C)C)c4c3)no2)CC1 [Compound 355] | > 45
22 | N#Cc1cccc(N2C[C@H](C(=O)N3CCC(c4nc(-c5ccc6cnn(C7COC7)c6c5)no4)CC3)CC2=O)c1 [Compound 600] | > 45
23 | CC(C)n1ncc2ccc(-c3noc(C4CCN(C(=O)[C@@H]5CC(=O)N(c6cccc(C#N)c6)C5)CC4)n3)cc21 [Compound 528] | > 45
24 | CC(C)n1ncc2ccc(-c3noc([C@H]4CC[C@H](NC(=O)OC(C)(C)C)CC4)n3)cc21 [Compound 537] | > 45
25 | CNC(=O)c1ccc(-c2noc(C3CCN(C(=O)[C@H]4CC(=O)N(c5ccccc5)C4)CC3)n2)cn1 [Compound 252] | > 45
26 | CC(C)n1ncc2ccc(-c3noc(C4CCN(C(=O)c5ccsn5)CC4)n3)cc21 [Compound 588] | > 45
27 | Cc1nn(C)c2cc(-c3noc(N4CCN(C(=O)N5CCCCC5)CC4)n3)ccc12 [Compound 327] | > 45
28 | CC(C)n1ncc2ccc(-c3noc(N4C[C@@H]5CNC[C@H]5C4)n3)cc21 [Compound 530] | > 45

Row | SMILES | IC50 [µM]
29 | COC(=O)N1CCC(c2nc(-c3ccc4cnn(C(F)F)c4c3)no2)CC1 [Compound 561] | > 45
30 | CC(C)n1ncc2ccc(N3CC4(CCN(C(=O)c5ccccc5Cl)CC4)C3)cc21 [Compound 534] | > 45
31 | COc1cc(-c2noc(C3CCN(C(=O)CNC(=O)c4ccccc4)CC3)n2)ccc1OC(F)(F)F [Compound 253] | > 45
32 | O=C(c1ccccc1)N1CCC(c2nc(-c3ccc4cnn(C5COC5)c4c3)no2)CC1 [Compound 564] | > 45
33 | CC(C)n1ncc2ccc(-c3nc(C4CCN(C(=O)CC5(C)CC5)CC4)no3)cc21 [Compound 546] | > 45
34 | COC(=O)N1C[C@H]2CN(c3nc(-c4ccc5cnn(C(C)C)c5c4)no3)C[C@@H]2C1 [Compound 568] | > 45
35 | Cn1c(=O)n(C)c2cc(-c3noc(C4CCN(C(=O)[C@H]5CC(=O)N(c6ccccn6)C5)CC4)n3)ccc21 [Compound 256] | > 45
36 | Cc1nn(C)c2cc(-c3nsc(C4CCN(C(=O)CNC(=O)c5ccccc5)CC4)n3)ccc12 [Compound 250] | > 45
37 | Cc1noc2cc(-c3noc(C4CCN(C(=O)CC5(C)CC5)CC4)n3)ccc12 [Compound 591] | > 45
38 | CC(C)n1cc2ccc(-c3noc(C4CCN(C(=O)OC(C)(C)C)CC4)n3)cc2n1 [Compound 277] | > 45
39 | Cc1nn(C)c2cc(-c3noc(C4CCN(C(=O)N5CCOCC5)CC4)n3)ccc12 [Compound 311] | > 45
40 | CC(C)n1ncc2ccc(-c3noc(C4CCN(S(=O)(=O)c5ccccc5Cl)CC4)n3)cc21 [Compound 540] | > 45
41 | COc1ccc(-c2noc(C3CCN(C(=O)CNC(=O)c4ccccc4)CC3)n2)cc1OC(C)C [Compound 274] | > 45
42 | CCn1nc2cc(-c3noc(C4CCN(C(=O)CNC(=O)c5ccccc5)CC4)n3)ccc2c1C [Compound 320] | > 45
43 | Cc1nn(C)c2cc(-c3noc(N4CCN(C(=O)c5cccc(F)c5)CC4)n3)ccc12 [Compound 270] | > 45
44 | Cc1nn(C)c2cc(-c3noc(C4CCN(C(=O)CC(C)(C)C)CC4)n3)ccc12 [Compound 263] | > 45
45 | CC(C)n1ncc2ccc(-c3nc(C4CCN(C(=O)c5ccc(Cl)cc5)CC4)no3)cc21 [Compound 505] | > 45
46 | Cc1nn(C)c2cc(-c3noc(C4CCN(C(=O)c5ccc(C(C)C)cc5)CC4)n3)ccc12 [Compound 290] | > 45
47 | O=C(c1ccccc1Cl)N1CCC(c2nc(-c3ccc4cnn(C5COC5)c4c3)no2)CC1 [Compound 562] | > 45
48 | CC(C)(C)OC(=O)N1CCC(c2nc(-c3ccc4cnn(C5CC5)c4c3)no2)CC1 [Compound 360] | > 45
49 | Cn1ncc2ccc(-c3noc(C4CCN(C(=O)OC(C)(C)C)CC4)n3)cc21 [Compound 359] | > 45
50 | CC(C)n1ncc2ccc(-c3noc(C4CCN(C(=O)c5ccc(Cl)c(F)c5)CC4)n3)cc21 [Compound 541] | > 45

molecular target: T2, SCD5 (Homo sapiens, UniProt Q86SK9); assay: Growth inhibition of humanized yeast expressing SCD5 as sole desaturase; format: cell-based; conditions: humanized yeast expressing SCD5
T2 construct: host or cells: S. cerevisiae ole1Δ strain, plasmid pRS316 with TDH3 promoter and CYC1 terminator
T2 sequence (Q86SK9 1-330): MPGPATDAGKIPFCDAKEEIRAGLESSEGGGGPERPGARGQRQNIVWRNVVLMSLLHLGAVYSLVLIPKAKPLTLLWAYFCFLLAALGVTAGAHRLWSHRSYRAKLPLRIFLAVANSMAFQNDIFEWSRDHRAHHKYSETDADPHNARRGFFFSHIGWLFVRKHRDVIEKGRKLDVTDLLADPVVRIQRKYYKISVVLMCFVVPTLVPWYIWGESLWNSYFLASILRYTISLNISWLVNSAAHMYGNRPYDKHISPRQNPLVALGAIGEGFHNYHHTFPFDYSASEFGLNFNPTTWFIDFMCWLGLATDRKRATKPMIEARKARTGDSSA
Method: as §1, §2, §3, §4, §5, §6, §7

Row | SMILES | SCD5 % Max Inhibition
51 | Cc1nn(C)c2cc(-c3nc(C4CCN(C(=O)OC(C)(C)C)CC4)no3)ccc12 [Compound 319] | 4.96% and 10.94%

same assay, conditions: humanized yeast expressing human SCD5

Row | SMILES | IC50 [µM]
52 | CC(C)n1ncc2ccc(-c3nc(C4CCN(C(=O)c5cccc(F)c5)CC4)no3)cc21 [Compound 547] | 44.3
53 | O=C([C@H]1CC(=O)N(c2ccccc2)C1)N1CCC(c2nc(N3CC4(COC4)C3)no2)CC1 [Compound 316] | ≥ 45
54 | CC(C)n1ncc2ccc(-c3noc(N4CCN(C(=O)OC5CC5)CC4)n3)cc21 [Compound 496] | 0.445

From US20240400546A1, “COMPOUNDS AND USES THEREOF” (JANSSEN PHARMACEUTICA NV, priority 2016, published 2024)
